Patent US6506339B1, “Method of sterilization” (Biomedical Design, Inc., priority 1997, dated 2003)
Marks after values point to notes of the source that are not given here.

What was measured:
[1] = system: Bacillus subtilis (niger) spores; test: Sterilization without isopropyl alcohol and sulfo-NHS, cups with or without porcine valve tissue (Example 4B); assay type: cell-based; details: 40° C., no isopropyl alcohol or sulfo-NHS
Experimental: An experiment similar to that of Example 2 is carried out using EDC as a coupling agent in the absence of isopropyl alcohol and sulfo-NHS. Bacillus subtilis (niger) spores at levels of about 10^6 are inoculated in sterile cups, some of which contain cross-linked porcine aortic valve tissue, for approximately 10 minutes. Solutions (50 ml) of 25, 50 and 70 mM EDC in 10 mM TRIS, 0.85% NaCl, pH 6.5, are prewarmed to 40° C., respectively added to the cups, and incubated at 40° C. for 1 to 3 days. The solutions are then diluted and filtered in order to collect microorganisms. The valve tissue is washed for 20 minutes in a reciprocating shaker in the presence of peptone water containing polyethylenesorbitan monooleate (Tween 80) in order to extract all spores of microorganisms from the tissue; the peptone water solution is added to the corresponding filter. Next, the filters are rinsed with a 0.1% peptone water solution to eliminate any residual EDC and incubated on TSA plates for 14 days. The plates are examined every day for growth, counting the colony forming units (CFUs).

[2] = system: Bacillus subtilis ATCC 9372 spores; test: Sterilization test with or without coupling enhancer (Example 3); assay type: cell-based; details: 20 mM EDC, 20% isopropyl alcohol, 72 hours, about 40° C.
Experimental: In the experiments described above, a coupling enhancer (Sulfo-NHS) was added to EDC during the sterilization process. The following experiment was designed to test the efficacy of EDC in the presence or absence of an enhancer. A sterilization test process was carried out employing about 5.7 to 6.6×10^5 Bacillus subtilis ATCC 9372 spores, inoculating them in sterile cups for 10 minutes. A solution of 10 mM HEPES, 0.85% NaCl, 20% isopropyl alcohol, pH 6.5 was then added to each of the cups, which solution contained 20 mM EDC and either 1 mM Sulfo-NHS or 1 mM NHS or no enhancer. Incubation was carried out for 72 hours (treatment duration) with the cups at about 40° C., and the solutions from the cups were then filtered. The filters were rinsed with a 0.1% peptone water solution to eliminate any residual EDC and/or enhancer and were then incubated on Trypticase Soy Agar (TSA) plates.

[3] = system: Bacillus pumilus ATCC 27142 spores; test: Sterilization in cups at about 38° C. (Example 6); assay type: cell-based; details: 25 mM EDC, 20% isopropanol
Experimental: (§1) In view of the foregoing verification, it was decided to test the effectiveness of the sterilization process against other bacteria using sterile cups. Added to each of the cups is 20 ml of 10 mM HEPES, 0.85%, Nacl, 20% isopropanol, pH 6.5, containing 25 mM EDC without any coupling enhancer, before the cups are placed in a incubator at about 38° C. When the solution temperature reached about 38° C., approximately 10^5-10^6 organisms were inoculated into the solution. The tests were carried out in triplicate. The following four isolated were tested in the form of sporous suspensions: Clostridium sporogenes ATCC 3584, Bacillus pumilus ATCC 27142, Chaetonium globosom ATCC 6205, and Microacus cinereus ATCC 16594. The following three isolates were tested as vegetative cells: Mycobacterium chelonae ATCC 35752, Methylbacterium extorquens ATCC 43645 and Trichosporon aquatile ATCC 22310. The inoculated systems were allowed to incubate for 1 hour, for 5 hours or for 24 hours, and the solutions were then filtered through a 0.45 micron filter. After rinsing, the filter was placed on a TSA plate as described in Example 1. Negative and positive controls indicate that the tests were valid. The results are set forth in Table D which follows wherein the number of CFUs in the inoculum is expressed as its log to the base 10, e.g. 3.4×10^5=5.5: […]

[4] = system: Clostridium sporogenes ATCC 3584 spores; test: Sterilization in cups at about 38° C. (Example 6); assay type: cell-based; details: 25 mM EDC, 20% isopropanol
Experimental: as §1

[5] = system: Mycobacterium chelonae ATCC 35752 vegetative cells; test: Sterilization in cups at about 38° C. (Example 6); assay type: cell-based; details: 25 mM EDC, 20% isopropanol, 1 Hour, inoculum Log 10 5.15
Experimental: as §1

[6] = system: Trichosporon aquatile ATCC 22310 vegetative cells; test: Sterilization in cups at about 38° C. (Example 6); assay type: cell-based; details: 25 mM EDC, 20% isopropanol, inoculum Log 10 4.3
Experimental: as §1

[7] = system: Chaetonium globosom ATCC 6205 spores; test: Sterilization in cups at about 38° C. (Example 6); assay type: cell-based, Chaetonium globosum; details: 25 mM EDC, 20% isopropanol, inoculum Log 10 ˜4.7
Experimental: as §1

CCN=C=NCCCN(C)C.Cl [EDC, 1-ethyl-3(3-dimethylaminopropyl)carbodiimide hydrochloride]
time within which effective sterilization (inactivation of 1×10^6 spores) occurs ([1]; 25 mM EDC): ≤ 24 hours | time within which effective sterilization (inactivation of 1×10^6 spores) occurs ([1]; 50 mM EDC): ≤ 24 hours | time within which effective sterilization (inactivation of 1×10^6 spores) occurs ([1]; 70 mM EDC): ≤ 24 hours | NUMBER OF COLONY FORMING UNITS (SURVIVORS) ([2]; enhancer 1 mM NHS): 0 | NUMBER OF COLONY FORMING UNITS (SURVIVORS) ([2]; enhancer 1 mM sulfo-NHS): 0 | NUMBER OF COLONY FORMING UNITS (SURVIVORS) ([2]; no enhancer): 0 | Log REDUCTION ([3]; 1 Hour, inoculum Log 10 5.45): 3.68 | Log REDUCTION ([3]; 5 Hours, inoculum Log 10 5.45): 4.41 | Log REDUCTION ([3]; 24 Hours, inoculum Log 10 5.22): 5.22 | Log REDUCTION ([4]; 1 Hour, inoculum Log 10 4.6): 2.12 | Log REDUCTION ([4]; 5 Hours, inoculum Log 10 4.6): 3.02 | Log REDUCTION ([4]; 24 Hours, inoculum Log 10 3.65): 3.65 | Log REDUCTION [5]: 5.15 | Log REDUCTION ([6]; 1 Hour): 4.3 | Log REDUCTION ([6]; 5 Hours): 4.3 | hours of incubation of plates after which no growth was observed ([7]; 5 Hours treatment): (72 hrs.)* | hours of incubation of plates after which no growth was observed ([7]; 24 Hours treatment): (96 hrs.)*
